Experimental findings from patent publication US8765750B2, “Piperazine compound having a PGDS inhibitory effect” (Taiho Pharmaceutical Co., Ltd., priority 2010, dated 2014) are described below.

SMILES strings stand for the structures.

The subject of assay [1] is PGD2 production in the nasal cavities of guinea pigs with antigen-induced rhinitis. The experiment in a line: PGD2 production inhibiting action in the nasal cavities of guinea pigs with antigen-induced rhinitis. In kind it is in vivo. The conditions noted are these: 30 mg/kg orally 1 hour before induction of rhinitis reaction; washing 30 minutes after induction; * = significance level below 0.05 vs control group. How it is done: A physiological saline solution containing 1 mg/mL of ovalbumin was subcutaneously injected into the back of 5-week-old male Std: Hartley guinea pigs in an amount of 1 mL/body for active sensitization (initial sensitization). One week and two weeks after initial sensitization, 20 μL of a physiological saline solution containing 10 mg/mL of ovalbumin was instilled into each nasal cavity using a micropipette (sensitization by nasal administration). Three weeks after initial sensitization, 20 μL of a physiological saline solution containing 10 mg/mL of ovalbumin was instilled into each nasal cavity using a micropipette to induce a rhinitis reaction.
30 minutes after the induction of a rhinitis reaction, the nasal cavities were washed under pentobarbital sodium anesthesia. A nasal cavity washing liquid (phosphate buffered saline containing 3 mM of EDTA and 10 μM of indomethacin) was flushed using a Peristaltic Pump (Gilson, Inc.) in the direction from the trachea to the upper respiratory tract at a flow rate of 1 mL/min, and the liquid flowing out from the nasal cavities was collected for 1 minute. The collected liquid was centrifuged to separate the supernatant as the nasal cavity washing fluid. The concentration of PGD2 in the nasal cavity washing fluid was determined using an EIA kit (Prostaglandin D2-MOX EIA kit, Cayman Chemical).
The test compound (30 mg/kg) was orally administered 1 hour before induction of a rhinitis reaction. A formula to calculate the rate of decrease in PGD2 in the nasal cavity washing fluid is shown below. Rate (%) of decrease in PGD2 in the nasal cavity washing fluid={(PGD2 concentration in the control group−PGD2 concentration in the compound-administered group)÷(PGD2 concentration in the control group−PGD2 concentration in the normal group)}×100
8 or more cases were obtained from each group to determine whether expression of the PGD2 production inhibiting action occurred, and the PGD2 concentration in the nasal cavity washing fluid was compared between the control group and each compound-administered group. […] When the significance level was below 0.05, the action was considered to be present and indicated by a symbol (*) in the table. Reference Example 18, known as an H-PGDS inhibitor, was used as a positive control substance.

A further assay deals with human H-PGDS (Homo sapiens (Human), UniProt O60760). The assay can be described thus: Hematopoietic prostaglandin D synthase (H-PGDS) inhibiting action. Format: biochemical. Conditions: for inhibition at 0.1 µM: compound at 0.1 μM, relative to the control group, human H-PGDS, [14C] prostaglandin H2 10 μM, read-out: Inhibition Rate (%) 0.1 μM. How it is done: The test was carried out according to the method of Urade, Y. et al. (J. Biol. Chem., 262, 3820-3825, (1987)). More specifically, the reaction mixture (49 μL) containing 100 mM Tris-HCl (pH 8.0), 1 mM reduced glutathione, 0.1 mg/mL γ-globulin, and human H-PGDS (q.s.), and a compound (final concentration: 0.01-100 μM) was preincubated at 25° C. for 5 minutes. A DMSO solution (final concentration: 1%) was added to the solvent control group. Subsequently, 1 μL of [^14C] prostaglandin H2 (final concentration: 10 μM) was added to start the reaction. One minute after the start of the reaction, 250 μL of a reaction stop solution (diethylether/methanol/1 M citric acid (30/4/1) at a temperature of −20° C. was added to stop the reaction. After the reaction was stopped, 50 μL of the upper-layer portion (organic solvent layer) was applied to a TLC plate and developed at −20° C. for 45 minutes (developing solvent: diethylether/methanol/acetic acid (90/2/1)). After drying the TLC plate, the TLC plate was exposed to an imaging plate for 1 to 24 hours, and the radioactivity corresponding to prostaglandin D2 (PGD2) was analyzed using an image analyzer (produced by Fujifilm Corporation). […]
Chain of human H-PGDS (O60760 whole entry): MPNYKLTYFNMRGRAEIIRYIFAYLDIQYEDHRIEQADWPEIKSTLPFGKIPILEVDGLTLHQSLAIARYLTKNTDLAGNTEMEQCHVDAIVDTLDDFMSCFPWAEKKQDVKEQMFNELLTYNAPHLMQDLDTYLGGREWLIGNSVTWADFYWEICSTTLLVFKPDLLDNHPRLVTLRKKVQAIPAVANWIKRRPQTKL

Usually inhibition stands for how much of the control response was suppressed. Consider `Cc1ccc2nc(NC(=O)N3CCN(C(=O)c4cccc(F)c4)CC3)sc2c1` [Reference Example 14, 4-(3-fluorobenzoyl)-piperazine-1-carboxylic acid-(6-methylbenzothiazol-2-yl)-amide, reference compound], for which the “Rate (%) of decrease in PGD2 in the nasal cavity washing fluid” value (from here on “Rate (%) of decrease in PGD2”) in assay [1] turned out to be 26.6%. The inhibition at 0.1 µM on human H-PGDS is 27.9%.
As for `COc1ccc2nc(NC(=O)N3CCN(C(=O)c4cccc(F)c4)CC3)sc2c1` [Reference Example 15, 4-(3-fluorobenzoyl)-piperazine-1-carboxylic acid-(6-methoxybenzothiazol-2-yl)-amide, reference compound], in assay [1], the “Rate (%) of decrease in PGD2” value is listed as −27.4%. Also, at human H-PGDS, the inhibition at 0.1 µM worked out at 20.9%.
For `O=C(Nc1nc2ccc(Cl)cc2s1)N1CCN(C(=O)c2cccc(F)c2)CC1` [Reference Example 16, 4-(3-fluorobenzoyl)-piperazine-1-carboxylic acid-(6-chlorobenzothiazol-2-yl)-amide, reference compound] the same measures were −38.1% and 33.8%.
As usually defined, the IC50 is the point on the concentration scale where inhibition reaches its midpoint. Read a low IC50 as inhibition by little substance. `O=C(Nc1ccc(C(F)(F)F)cc1)N1CCN(C(=O)c2cccc(F)n2)CC1` [Reference Example 17, 4-(6-fluoropyridine-2-carbonyl)-piperazine-1-carboxylic acid-(4-trifluoromethylphenyl)-amide, reference compound]: in assay [1], the “Rate (%) of decrease in PGD2” value came to 31.0%. Also, at human H-PGDS, the IC50 came out at 5.82 µM and the inhibition at 0.1 µM was found to be 1.8%.
